In patent US7196163B2, “Assays using amyloid precursor proteins with modified β-secretase cleavage sites to monitor β-secretase activity” (Merk & Co., Inc., priority 2001, dated 2007):
Ends that are not written are not given here. coumarin = not defined here

How the values were obtained:
HEK293T cells = assay: Aβ (IP/Western) and sAPP (Western) produced by APP β-site mutants transiently transfected into HEK293T cells; format: cell-based; conditions: for Aβ level / sAPP level: transfected into 293T cells; for sAPP level: Western blot with LN27; for Aβ production compared with Swedish mutant and wild type APP695: HEK293T cells
Excerpt: In order to assess the relative suitability of modified β-secretase substrates as substrates that are more reactive than the wild type KMDA cleavage site, plasmid DNA constructs were made expressing 21 different modified β-secretase cleavage site sequences. Table 1, below, summarizes data obtained from most of these modified β-secretase substrates in HEK293T cells. The HEK293T cells were transfected with plasmids containing the genetic sequences for the APP695 polypeptides that contain each of these beta-site substitutions. These plasmids were prepared using the method described above in Example 1. Transient transfection was performed using LipofectaminePlus reagent (Gibco/BRL, Rockville, Md.) according to the instructions of the manufacturer. Media was harvested 48 hrs post transfection. Then Western blot analysis was used to determine levels of sAPP and IP/Western to determine levels of Aβ. Several volumes of conditioned media, 20 μl, 10 μl, 5 μl, 2.5 μl, from the transiently transfected cells were run on 10% SDS-PAGE gels and transferred to PVDF for the measurement of sAPP. Each blot contained a titration of wild type APP transfected conditioned media to normalize for any experimental variations derived from transferring of the gels and western blot detection. The blots were then probed with the antibody LN27 (Zymed, Calif.) to detect the secreted APP, sAPP. Densitometry of each western blot determined the relative amount of total APP expressed in each transfection.
To determine the levels of Aβ, each of the conditioned media was immuno-precipitated and analyzed via the following method. 5 μg of monoclonal antibody G2-10 (a monoclonal antibody that immunologically binds to the carboxyl end of Aβ40, licensed from University of Heidelberg) was added to 1 ml of each conditioned media. The mixture was rotated overnight at 4° C. for 16 hours. 25 μl of a 50% slurry of Protein A sepharose Fast flow beads (Amersham, N.J.) was added and incubation continued, rotating, for 2 hours at 4° C. The beads were pelleted and the supernatant was removed. The beads were washed once with 1 ml PBS. This material was then run on SDS-Tricine gels for analysis. 20 μl of 2×tricine loading buffer was added to the pellet and the mixture was heated at 95° C. for 5 minutes. A pipette tip was used to mix and load the whole mixture (beads included) onto a Bio-Rad 10–20% Tricine gel. The gels were electrophoresed at 125 Volts for 2 hours and 15 minutes and then transferred onto 0.2 μm nitrocellulose backed by a 0.1 μm nitrocellulose membrane for 75 minutes at 100V constant. Blots were then washed in PBS and boiled in PBS for 5 minutes before blocking in PBS plus 0.05% Tween-20 (PBST) with 5% non-fat milk for 60 minutes at room temperature. The milk was washed off twice with PBST and the blots were incubated overnight at 4° C. with G2-10 in PBST (1:1000 dilution). Blots were washed five times for 5 minutes each with large volumes of PBST and the secondary antibody of Goat anti-mouse IgG2b-HRP (Southern Biotechnology Associates, Inc., Birmingham, Ala.) was added at 1:5000 in PBST-5% milk and incubated, rocking, for 1 hour at room temperature. The blots were again washed, five times for 10 minutes each in large volumes of PBST. The substrate Pico ECL (Pierce) was added for 5 minutes and the blots were exposed to Kodak BioMax film. After western analysis was complete, the bands were quantitated by densitometry. For both the sAPP and the Aβ, the GFP control plasmid transfection serves as the background reference level (1×).

[1] = test system: immortalized β-secretase-/-mouse fibroblast cells; assay: Aβ production after transfection into immortalized β-secretase-/- mouse fibroblast cells, with or without human β-secretase; format: cell-based; conditions: no β-secretase co-transfected
Excerpt: Production of Aβ in β-secretase-/-cells could be rescued by co-transfection of the APP-derived polypeptides comprising modified β-secretase cleavage site sequences with human β-secretase.

anti-EVEFR antibodies = assay: ORIGEN non-sandwich competition of peptides with binding of ruthenylated anti-EVEFR antibodies to biotinylated EVEFR; set-up: species or system rabbit; conditions: peptide added over a broad concentration range; FIGS. 3A, 3B
Method: Antibody specificity also was evaluated for both lots. An ORIGEN Analyzer (described below) was utilized in a non-sandwich assay to compare the ability of related polypeptides to compete with the binding of ruthenylated anti-EVEFR antibodies to biotinylated EVEFR (SEQ. ID. NO. 58). Certain peptides and conjugated peptides were added as treatments over a broad concentration range, and competitive titrations were made. […] The normal antigen is not acetylated.
Additionally, the specificity of the antibody raised against the EVEFR (SEQ.ID.NO.:58) sequence is tight enough that a conservative change in the epitope presented to the antibody, namely DVEFR(SEQ ID. NO. 60) where the NH-terminus E is conservatively changed to D, the antibody would only recognize the bona fide cleavage product. When measuring products in a cell-based environment, where thousands and perhaps millions of different proteins and epitopes are presented to the antibody, such specificity is required for the absolute measurement of the specific BACE cleavage product. Overall, the polyclonal rabbit antibodies raised against EVEFR (SEQ.ID.NO.:58) are shown to be sufficiently specific for use in detection analyses.
In certain embodiments the antibodies of the present invention are used in an electrochemiluminescence (ECL) detection method known in the art as “Origen” technology (Yang et al., 1994, Bio/Technology 12:193–194; Khorkova et al., 1998. Journal of Neuroscience Methods 82:159–166), and an Origen 1.5 Analyzer (Igen Inc., Gaithersburg, Md.). In embodiments using this ECL-based ORIGEN technology, each purified antibody lot is derivatized to a ruthenium tris-bipyridyl compound. The following provides one example of one of such embodiments.

2081 antibody = assay: Competition of peptides against biotinylated-SEVNF for binding of the 2081 antibody; set-up: species or system rabbit
Method: To determine the specificity of the 2081 antibody, competition experiments against the biotinylated-SEVNF with the following peptides were performed: SEVNF, SEVN, SEVNFE, SEVNL, and SEVNLD. The experiment was performed similar to the experiment outlined in Example 2 to determine the specificity of antibody 2081.

BACE 1 = BACE 1 (Homo sapiens, UniProt P56817); assay: Homogeneous end point HPLC assay of BACE 1 cleavage of coumarin substrate; format: biochemical
BACE 1, sequence (P56817 46-457 limits assumed): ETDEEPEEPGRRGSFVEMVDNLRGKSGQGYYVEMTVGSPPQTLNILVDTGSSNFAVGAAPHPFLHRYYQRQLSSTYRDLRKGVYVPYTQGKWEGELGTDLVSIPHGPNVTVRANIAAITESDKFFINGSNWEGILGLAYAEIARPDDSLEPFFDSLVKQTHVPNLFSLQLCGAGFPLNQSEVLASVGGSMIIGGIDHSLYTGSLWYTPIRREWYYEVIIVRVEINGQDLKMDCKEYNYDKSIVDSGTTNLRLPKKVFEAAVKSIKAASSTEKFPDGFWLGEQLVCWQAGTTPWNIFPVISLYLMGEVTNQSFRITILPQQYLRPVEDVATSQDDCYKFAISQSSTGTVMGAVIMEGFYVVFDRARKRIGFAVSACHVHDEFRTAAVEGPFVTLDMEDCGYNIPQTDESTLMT
Method: A typical reaction contains 2 nM enzyme, 1.0 μM of the substrate, and buffer (50 mM NaOAc, pH 4.5, 0.1 mg/ml BSA, 0.2% CHAPS, 15 mM EDTA and 1 mM deferoxamine) in a total reaction volume of 100 μL. The reaction is proceeded for 30 min and the reaction is stopped by the addition of 25 μL of 1 M Tris-HCl, pH 8.0. The resulting reaction mixture was loaded on the HPLC and the product was separated from substrate with 5 min linear gradient. […] The enzyme used in these studies was soluble (transmembrane domain and cytoplasmic extension excluded) human protein produced in a baculovirus expression system. […] All experiments were conducted at room temperature using the standard reaction conditions described above. To determine the IC50 of the compound, four parameters equation is employed for curve fitting.

Cultured cells = conditions: cultured cells expressing cDNA encoding APP; cited from earlier work

NFAV: APP695-derived polypeptide with NFAV at the β-secretase cleavage site
Aβ level (HEK293T cells): below the limit of detection | sAPP level (HEK293T cells): below the limit of detection

KFAA: APP695-derived polypeptide with KFAA at the β-secretase cleavage site
Aβ level (HEK293T cells): below the limit of detection | sAPP level (HEK293T cells): below the limit of detection

NLDV: APP695-derived polypeptide with NLDV at the β-secretase cleavage site
production of Aβ [1]: no production of Aβ was observed | Aβ production compared with Swedish mutant and wild type APP695 (HEK293T cells): over three times the level of wild type APP695 | Aβ Level produced by APP β-site mutants in HEK293T cells (HEK293T cells; media 48 hrs post transfection, IP/Western with G2-10, densitometry, GFP control = 1X): 10–15X

NFEA: APP695-derived polypeptide with NFEA at the β-secretase cleavage site
production of Aβ [1]: no production of Aβ was observed | Aβ level (HEK293T cells): below the limit of detection | sAPP level (HEK293T cells): below the limit of detection

NYDV: APP695-derived polypeptide with NYDV at the β-secretase cleavage site
Aβ level (HEK293T cells): below the limit of detection | sAPP level (HEK293T cells): below the limit of detection

DAEFR (peptide for use in antibody specificity evaluation)
competition with biotinylated EVEFR for anti-EVEFR binding (anti-EVEFR antibodies): unable to compete for binding

KYAA: APP695-derived polypeptide with KYAA at the β-secretase cleavage site
Aβ level (HEK293T cells): below the limit of detection | sAPP level (HEK293T cells): below the limit of detection

acetylated-EVEFR (Ac-EVEFR)
competition with biotinylated EVEFR for anti-EVEFR binding (anti-EVEFR antibodies): does not bind well to the antibody

VEFR (peptide simulating cleaved portion from carboxy side of novel sequence at known enzyme cleavage site, lacking end amino acid)
competition with biotinylated EVEFR for anti-EVEFR binding (anti-EVEFR antibodies): slight competitive interference

NFTV: APP695-derived polypeptide with NFTV at the β-secretase cleavage site
Aβ level (HEK293T cells): below the limit of detection | sAPP level (HEK293T cells): below the limit of detection

DVEFR (peptide for use in antibody specificity evaluation)
competition with biotinylated EVEFR for anti-EVEFR binding (anti-EVEFR antibodies): somewhat higher level of interference

FFAV: APP695-derived polypeptide with FFAV at the β-secretase cleavage site
Aβ level (HEK293T cells): below the limit of detection | sAPP level (HEK293T cells): below the limit of detection

SEVN
competition against biotinylated-SEVNF for binding of the 2081 antibody (2081 antibody): could not compete

EVEFR (peptide simulating cleaved portion from carboxy side of novel sequence at known enzyme cleavage site) [penta-peptide at the amino-terminal end of CTFβ from NFEV or FFEV substrates]
competition with biotinylated EVEFR for anti-EVEFR binding (anti-EVEFR antibodies): competed with biotinylated EVEFR

SEVNFE
competition against biotinylated-SEVNF for binding of the 2081 antibody (2081 antibody): could not compete

SEVNL
competition against biotinylated-SEVNF for binding of the 2081 antibody (2081 antibody): limited amount of competition | effectiveness of competition relative to SEVNF (2081 antibody; less effective than SEVNF): 100 fold

coumarin-bound deca-peptide: coumarin-bound deca-peptide including the EVEFR sequence; possibly coumarin-CO-REVNFEVEFR (coumarin-REVNFEVEFR; not fully specified; printed as coumarin-CO-REVNFEVEFR; reading uncertain)
competition with biotinylated EVEFR for anti-EVEFR binding (anti-EVEFR antibodies): did not compete well

SEVNF (SEVNF-OH) [five C-terminal amino acids of the modified sAPPβ fragment]
competition against biotinylated-SEVNF for binding of the 2081 antibody (2081 antibody): could compete

SEVNLD
competition against biotinylated-SEVNF for binding of the 2081 antibody (2081 antibody): could not compete

NFEV: APP695-derived polypeptide with NFEV at the P2-P1-P1′-P2′ β-secretase cleavage site
production of Aβ [1]: no production of Aβ was observed | Aβ production compared with Swedish mutant and wild type APP695 (HEK293T cells): high levels of Aβ, comparable to that generated by the APP Swedish mutant | rate of cleavage relative to similar substrate with wild-type KMDA sequence (HEK293T cells; in an APP backbone, expressed in tissue culture cells): 15–20 times

NYEA: APP695-derived polypeptide with NYEA at the β-secretase cleavage site
Aβ level (HEK293T cells): below the limit of detection | sAPP level (HEK293T cells): below the limit of detection

NYAA: APP695-derived polypeptide with NYAA at the β-secretase cleavage site
Aβ level (HEK293T cells): below the limit of detection | sAPP level (HEK293T cells): below the limit of detection

coumarin-CO-REVNFEVEFR
substrate processed by BACE 1 (BACE 1; 2 nM enzyme, 1.0 μM substrate, 30 min, pH 4.5, room temperature): less than 10% | Km (BACE 1; cannot be determined due to limit of solubility of the substrate): > 100 µM

NFDV: APP695-derived polypeptide with NFDV at the β-secretase cleavage site
Aβ level (HEK293T cells): below the limit of detection | sAPP level (HEK293T cells): below the limit of detection

NLDA (Swedish): APP Swedish mutant, NLDA at the β-secretase cleavage site
Aβ produced relative to cells expressing wild-type APP (Cultured cells): 6–8 fold
